From paper PMC6826492, “Experimental and Computational Study of the Antioxidative Potential of Novel Nitro and Amino Substituted Benzimidazole/Benzothiazole-2-Carboxamides with Antiproliferative Activity” (Antioxidants, 2019)
Like-named read-outs stand apart in the source and are kept apart here. Blank lines part the entries; values can stand above or below the molecule they belong to.

How the values were obtained:
[1] = DFT calculation of bond dissociation and ionization energies; settings: for BDE lower than BDE (M1): difference to M1
Source text: All geometrical parameters were optimized employing the density functional theory (DFT) B3LYP functional (unrestricted UB3LYP for the radicals), together with the 6–31+G(d) basis set, followed by the vibrational analysis using the Gaussian 16 software. Thermal corrections were extracted from the matching uncorrected vibrational frequencies, also used to confirm the obtained structures as true minima by the lack of imaginary frequencies. The final electronic energies were refined through single-point calculations with a highly flexible 6–311++G(2df,2pd) basis set. Solvent effects were considered through the implicit SMD polarizable continuum model with all parameters for pure ethanol (ε = 24.852), giving the B3LYP/6–311++G(2df,2pd)//(SMD)/B3LYP/6–31+G(d) model employed here, being fully in line with our earlier reports. As such, all computational values correspond to differences in Gibbs free energies obtained at a room temperature of 298 K and a normal pressure of 1 atm. The choice of this computational setup was additionally prompted by its success in modeling mechanisms of various antioxidants, and in reproducing kinetic and thermodynamic parameters of a variety of organic and enzymatic reactions. According to the literature, there are several mechanisms that relate to the antioxidative properties of molecules. Here, we inspected the two most frequent, and usually thermodynamically most preferred antioxidant mechanisms, namely hydrogen atom transfer (HAT), and single electron transfer (SET) that is commonly followed by proton transfer (SET-PT). All these mechanisms result in the formation of the same antioxidant radical.
HAT is a major route where the H atom (hydrogen radical, H•) is directly transferred from an antioxidant (M) to a free radical accompanied by the homolytic M–H bond cleavage. The capacity of this process is governed by the M–H bond dissociation energy (BDE), calculated as:M–H → M• + H• BDE = G(M•) + G(H•) − G(M–H).
Scavenging the free radicals can also be accomplished by donating an electron from a system M in the SET-PT process. This process is driven by the adiabatic ionization energy (IE) necessary to eject a single electron from M, calculated as:M → M•^+ + e^− IE = G(M•^+) − G(M).

[2] = Ferric reducing/antioxidant power (FRAP assay); type: biochemical; settings: for FRAP: means ± standard deviation, absorbance at 593 nm
Protocol: The FRAP method was carried out according to previously described procedures with some modifications to be compatible with an assay on a 96-well microplate. All tests were done in triplicate, while the obtained results were averaged and reported as Fe^2+ equivalents (Fe^2+ µmol).
By using the FRAP assay, we investigated the reducing power of investigated systems, which was monitored by the corresponding changes in the absorbance at 593 nm. This method is based on the ability of systems to reduce the ferric tripyridyl triazine complex (TPTZ) to the ferrous state (Fe^2+), which can be seen by an intense blue color. […] Good reducing ability was shown by the trimethoxy substituted benzimidazole-2-carboxamide 14 bearing the amino group (1102.5 ± 14.1 mmolFe^2+/mmolC).

[3] = tested on: HEK 293 (human embryonic kidney cells); experiment: Cytotoxic activity on non-cancerous cells (MTT assay); type: cell-based; settings: Homo sapiens, HEK293; non-tumor cell line; 72 h incubation, MTT; concentration that causes 50% growth inhibition
Protocol: (§1) The experiments were performed on four human cell lines, including HCT 116 (colon carcinoma), H 460 (lung carcinoma), MCF-7 (breast carcinoma), and HEK 293 (human embryonic kidney cells), in line with previously published experimental procedures. Briefly, the cells were grown in DMEM medium with the addition of 10% fetal bovine serum (FBS), 2 mM L-glutamine, 100 U/mL penicillin, and 100 µg/mL streptomycin, and cultured as monolayers at 37 °C in a humidified atmosphere with 5% CO2. Cells were seeded at 2 × 10^3 cells/well in a standard 96-well microtiter plates and left to attach for 24 h. The next day, a test compound was added in five serial 10-fold dilutions. The rate of cell growth was evaluated after 72 h of incubation with MTT assays. The obtained results are expressed as IC50 values, calculated from the concentration-response curve using linear regression analysis by fitting the test concentrations that give PG values above and below the reference value (i.e., 50%). Each test was performed in quadruplicate in at least two individual experiments.

HCT 116 cells = experiment: Antioxidative activity assay in cells (TBHP-induced ROS, DCFH-DA); type: cell-based, human; settings: 100 µM TBHP + 10 µM compound, 1 h, DCFH-DA fluorescence
Protocol: For the antioxidative activity assay, 2.5 × 10^4 cells were seeded into 96-well microtiter plates and left to attach for 24 h. The next day, cells were washed with PBS and incubated in FBS-free DMEM medium with 25 µM DCFH-DA fluorescence dye. After 45 min of incubation, medium was discarded, and cells were washed with PBS. After the washing step, cells were incubated with 100 µM tert-Butyl hydroperoxide (TBHP) alone or in combination with antioxidative agents (50 mM N-Acetyl-L-cysteine—NAC, or 10 µM tested compounds) in PBS, for 1 h at 37 °C. DCFH-DA fluorescence was recorded on a microplate fluorimeter reader (Tecan) with excitation beam of 485 nm, while the emitted fluorescence was collected at 535 nm. All tests were presented as medians of three independent measurements, done in triplicates. One-way ANOVA with Tukey’s post-hoc test was used for statistical analysis, * p < 0.05, ** p < 0.01, *** p < 0.001.
In order to test the antioxidant activity of selected systems in tumor cells (Figure 1), we treated HCT 116 cells with tert-Butyl hydroperoxide (TBHP), a substance commonly used for inducing oxidative stress in cells and tissues, alone or in a combination with a known antioxidative agent N-Acetyl-L-cysteine (NAC) or tested compounds [35]. We measured the formation of oxidative stress by-products using 2′,7′-dichlorodihydrofluorescein diacetate (DCFH-DA). We selected system 8 showing pronounced antiproliferative/cytotoxic activity, but no antioxidant capacity in DPPH/FRAP assays, 29 showing exceptionally pronounced antioxidative activity in DPPH/FRAP tests, 14 showing negligible antiproliferative but strong antioxidant capacity in both DPPH/FRAP assays, and 26 showing similarly strong antiproliferative and radical trapping activity in DPPH assay, but rather modest reducing power in FRAP assay. None of the compounds influenced the basal level of ROS in the cells. […] On the other hand, no effect was obtained upon treatment with either 8 or 14 (Figure 1). We additionally tested the impact of the selected compounds on cellular and mitochondrial ROS production in HCT 116 cells using fluorescent dyes, DCFH-DA for cellular and MitoSOX for mitochondrial ROS detection (Supplementary Materials, Figures S53 and S54).
Figure 1 Antioxidative activity of selected systems. HCT 116 cells were treated with the combination of tert-Butyl hydroperoxide (TBHP, 100 uM) and N-Acetyl-L-cysteine (NAC, 50 mM) or tested compounds 8, 14, 26, and 29 (10 µM) for 1 h. The level of reactive oxygen species (ROS) was measured with fluorescent dye 2′,7′-dichlorodihydrofluorescein diacetate (DCFH-DA) using fluorimeter. Treatment with 100 uM TBHP alone was used as a control for ROS induction. Data presented here are the results of three independent measurements, done in triplicates. […]

[4] = DPPH free radical scavenging; type: biochemical; settings: for IC50: after 30 min of incubation with 100 μM DPPH
Protocol: The reducing activity of investigated systems was achieved by the DPPH method according to previously described procedures with modifications to assure the use in a 96-well microplate. Briefly, equal volumes of various concentrations of tested molecules (dissolved in DMSO) were added to the solution of DPPH (final concentration 50 µM in absolute ethanol). Ethanol and DMSO were used as control solutions in line with earlier reports.

MCF-7 (breast carcinoma) = experiment: Antiproliferative activity in vitro (MTT assay); type: cell-based, human; settings: Homo sapiens, MCF7, 72 h, 72 h incubation, concentration that causes 50% growth inhibition
Protocol: as §1

H 460 (lung carcinoma) = experiment: Antiproliferative activity in vitro (MTT assay); type: cell-based, human; settings: Homo sapiens, NCI-H460, 72 h, 72 h incubation, concentration that causes 50% growth inhibition
Protocol: as §1

[5] = tested on: HCT 116 (colon carcinoma); experiment: Antiproliferative activity in vitro (MTT assay); type: cell-based, human; settings: Homo sapiens, HCT-116, 72 h, 72 h incubation, concentration that causes 50% growth inhibition, read-out: IC50 HCT116
Protocol: as §1

HCT116 cell line [6] = experiment: Cellular ROS measurement assay (DCFH-DA, flow cytometry); type: cell-based, human; settings: HCT116, 10 µM compounds (2 mM H2O2 positive control), 1 h, DCF-DA; *** p < 0.001, ns not significant
Protocol: Figure S53. Impact of compounds on cellular ROS production was measured with fluorescent dye DCF-DA in HCT116 cell line, after the treatment with 10 µM compounds for 1h. H 2O2 was used as a positive control. Data presented here are the results of 3 independent measurements, done in duplicates. One-way ANOVA with Tukey’s post-hoc test was used for statistical analysis, ***- p < 0.001. […]
Human colon carcinoma cell line HCT116 was grown in DMEM medium with the addition of 10% fetal bovine serum (FBS), 2 mM L-glutamine, 100 U/ml penicillin and 100 µg/ml streptomycin, and cultured as monolayers at 37°C in a humidified atmosphere with 5% CO2.
Cellular ROS measurement assay
For the cellular ROS measurement assay, 2.5 × 10^4 cells were seeded into 96-well microtiter plates 24h prior to experiment. Next day, cells were trypsinized and incubated in FBS-free DMEM medium with 20 µM DCFH-DA fluorescence dye for 45 minutes. After the incubation, compounds were added without washing and cells were treated with 2 mM H 2O2 as a positive control and 10 µM compounds 8, 14 and 26 for 1 hour. Cells were washed in PBS and DCFH-DA signal was measured by flow cytometry, in FL1 channel. […]

HCT116 cell line [7] = experiment: Mitochondrial ROS measurement assay (MitoSOX, flow cytometry); type: cell-based, human; settings: HCT116, 10 µM compounds (3 µM Rotenone positive control), 1 h, *** p < 0.001, ns not significant
[8] = cited from earlier work

Compound: O=C(Nc1nc2ccc([N+](=O)[O-])cc2s1)c1cc(O)c(O)c(O)c1 [Compound 29, 3,4,5-trihydroxy-N-(6-nitrobenzothiazol-2-yl)benzamide]
FRAP [2]: 6139.2 ± 3.0 mmolFe^2+/mmolC | FRAP reducing power in comparison to standard BHT ([2]; relative to BHT): threefold higher | IC50 [3]: 6 ± 4 µM | BDE increase relative to M12 ([1]; difference to M12): 0.8 kcal/mol | ROS levels when oxidative stress was induced (HCT 116 cells): significantly reduced the ROS levels | IC50 [4]: 2 ± 0.15 µM | IC50 (MCF-7 (breast carcinoma)): 4 ± 0.7 µM | IC50 (H 460 (lung carcinoma)): 2 ± 1 µM | IC50 [5]: 7 ± 1 µM

Compound: COc1c(O)cc(C(=O)Nc2nc3ccc([N+](=O)[O-])cc3[nH]2)cc1O [Compound 26, 3,5-dihydroxy-4-methoxy-N-[5(6)-nitrobenzimidazol-2-yl]benzamide]
cellular ROS production (significance vs control) (HCT116 cell line [6]): ns | FRAP [2]: 244.9 ± 4.8 mmolFe^2+/mmolC | IC50 [3]: 3 ± 0.7 µM | mitochondrial ROS production (significance vs control) (HCT116 cell line [7]): ns | ROS levels when oxidative stress was induced (HCT 116 cells): significantly reduced the ROS levels | IC50 [4]: 8.1 ± 1.9 µM | IC50 (MCF-7 (breast carcinoma)): 3 ± 1 µM | IC50 (H 460 (lung carcinoma)): 3 ± 0.5 µM | IC50 [5]: 4 ± 0.1 µM

Compound: Oc1ccccc1 [phenol]
calculated BDE [8]: 82.9 kcal/mol

Compound: COc1cc(C(=O)Nc2nc3ccc(N)cc3[nH]2)cc(OC)c1OC [Compound 14, N-[5(6)-aminobenzimidazol-2-yl]-3,4,5-trimethoxybenzamide]
cellular ROS production (significance vs control) (HCT116 cell line [6]): ns | FRAP [2]: 1102.5 ± 14.1 mmolFe^2+/mmolC | IC50 [3]: 43 ± 2 µM | mitochondrial ROS production (significance vs control) (HCT116 cell line [7]): ns | ROS levels when oxidative stress was induced (HCT 116 cells): no effect | antioxidant potency relative to 17 ([4]; DPPH, 14 vs 17): around four times | IC50 [4]: 10.7 ± 0.23 µM | IC50 (MCF-7 (breast carcinoma)): 43 ± 15 µM | IC50 (H 460 (lung carcinoma)): > 100 µM | IC50 [5]: 76 ± 24 µM

Compound: Oc1cccc(O)c1O [1,2,3-trihydroxybenzene]
calculated BDE lower than that for its 1,3,5-trihydroxy analogue ([8]; in toluene ref 46): 15 kcal mol^−1

Compound: O=C(Nc1ccccc1)c1ccccc1 [Ph–CO–NH–Ph, reference compound]
BDE ([8]; earlier calculations of the authors ref 24): 85.3 kcal/mol

Compound: Cc1cc(C(C)(C)C)c(O)c(C(C)(C)C)c1 [BHT, butylated hydroxytoluene, reference compound]
FRAP [2]: 2089 ± 60 mmolFe^2+/mmolC | BDE ([8]; in benzene ref 45): 76.9 kcal/mol | BDE ([8]; in heptane ref 44): 79.9 kcal/mol | BDE ([8]; in toluene ref 46): 72.4 kcal/mol | IC50 [4]: 25 ± 4 µM

Compound: O=C(O)c1cc(O)c(O)c(O)c1 [gallic acid]
calculated BDE [8]: 77.0 kcal/mol

Results, then the molecule that gave them:

more potent antioxidant (lower BDE) than nitro-substituted M21 ([1]; difference to M21): ~15 kcal/mol
Compound: COc1cc(C(=O)Nc2nc3ccc(N)cc3[nH]2)cc(OC)c1OC [Compound M22]

BDE lower than BDE (BHT) ([1]; difference to BHT (65.8)): 17.5 kcal/mol
Compound: Nc1ccc2nc(NC(=O)c3ccccc3)sc2c1 [Compound M7]

BDE lower than BDE (M1) [1]: 0.5 kcal/mol
Compound: COc1ccc(C(=O)Nc2nc3ccccc3s2)cc1 [Compound M9]

lowering of antioxidative capacity (BDE increase) relative to M8 ([1]; difference to M8): 1.1 kcal/mol
Compound: O=C(Nc1nc2ccc([N+](=O)[O-])cc2s1)c1ccc(O)cc1 [Compound M10]

BDE lower than BDE (M1) [1]: 4.8 kcal/mol
Compound: O=C(Nc1nc2ccccc2s1)c1ccc(O)cc1 [Compound M8]

BDE higher than that for BHT ([1]; difference to BHT (65.8)): 16.9 kcal/mol
Compound: O=C(Nc1nc2ccccc2s1)c1ccccc1 [Compound M1]

BDE lower than BDE (M1) [1]: 10.1 kcal/mol
Compound: O=C(NC1=Nc2ccccc2C1)c1ccccc1 [Compound M4]

BDE lower than BDE (M1) [1]: 7.1 kcal/mol
Compound: Nc1ccc2nc(NC(=O)c3ccccc3)sc2c1 [Compound M6]
